The text below walks through data of US20240082271A1, “Methods of Treatment of Fibrotic Diseases” (PHOST’IN THERAPEUTICS, priority 2021, published 2024).

One data set deals with NIH3T3 fibroblasts. Briefly: Wound healing (scratch) inhibition test in presence of TGFβ. Particulars: 1 μM tested compound, 24 h, in presence of TGFβ 5 ng/ml. Type of data set: cell-based. The method, then:
NIH3T3 fibroblasts were seeded at 40 000 cells per cm2 in a 24 well plate, DMEM+10% FBS.
Before wound/treatment, cells were washed twice in DMEM without serum then incubated in the appropriate condition DMEM+2.5% FBS, TGFβ+/−, PST3.1+/−.
TGFβ 5 ng/ml; PST3.1 1 μM, n=6 wells per treatment.
At t0, cell layer is scratched using a needle and observed under microscope to take 3 pictures per well using a scale measure referential to measure width of the scratch using imageJ software.
After 24 h of incubation in the desired condition, scratch is measured under microscope by taking 3 pictures at the same scale using the same referential.
Data are treated by calculating percentage of closing.

Data set [1] has as its system STAM NASH model mice (liver fibrosis). Briefly: STAM NASH model mice, Sirius red-stained liver fibrosis area and tolerability. Format: in vivo. Particulars: for Sirius red positive area (fibrosis area) of liver sections: PO 6-9 wks of age, compound 3.1 15 mg/kg BID, Telmisartan 10 mg/kg QD, mean±SD, p<0.01 vs vehicle. From the text: The STAM model (developed and standardized by SMC Laboratories, Japan https://www.smccro-lab.com/) is a model that recapitulates the same disease progression as human nonalcoholic steatohepatitis (NASH) and hepatocellular carcinoma (HCC): in 25% of affected patients (i.e. 20%-25% of the adult population), nonalcoholic fatty liver disease progresses to NASH, which increases the risk for the development of cirrhosis, liver failure, and hepatocellular carcinoma. In patients with NASH, liver fibrosis is the main determinant of mortality (https://doi.org/10.1053/j.gastro.2019.11.311). In this model, male C57BL/6 mice aged two days are given a single dose of streptozotocin to reduce insulin secretory capacity. When the mice turn four weeks of age they start a high-fat diet feeding. This model has a background of late type 2 diabetes which progresses into fatty liver, NASH, fibrosis and consequently liver cancer (HCC). Compared to other NASH-HCC model mice, the disease progresses in a relatively short period of time, and liver cancer is developed in 100% of animals at 20 weeks of age.
C57BL/6JJmsSlc mice (14-day-pregnant female) were obtained from Japan SLC, Inc. (Japan). Two days after birth, NASH is induced in male mice by a single subcutaneous injection of 200 μg streptozotocin (STZ, Sigma-Aldrich, USA) solution and feeding with high fat diet (HFD, 57 kcal % fat, Cat #HFD32, CLEA Japan, Inc., Japan) after 4 weeks of age. Sterilized solid HFD is provided ad libitum, and replaced once every 2 days according to the manufacturer's instructions. Then, NASH model mice are divided into 3 randomized groups of 10 mice at 6 weeks of age based on their body weight the day before the start of treatment. The randomization was performed by body weight-stratified random sampling using Excel software. NASH model mice were stratified by their body weight to get SD and the difference in the mean weights among groups as small as possible.
Group 1: Vehicle (10 NASH mice orally administered with Placebo nanosuspension in a volume of 10 mL/kg twice daily from 6 to 9 weeks of age).
Group 2: Compound 3.1 (PST3.1) ((10 NASH mice orally administered with compound 3.1 nanosuspension at a dose of 15 mg/kg in a volume of 10 mL/kg twice daily (2*15 mg/kg/day) from 6 to 9 weeks of age).
Group 3: Telmisartan (10 NASH mice will be orally administered vehicle supplemented with Telmisartan at a dose of 10 mg/kg once daily in a volume of 10 mL/kg from 6 to 9 weeks of age). Vehicle and compound 3.1 were provided by Phost'in Therapeutics SAS. Telmisartan (Micardis®) was purchased from Boehringer Ingelheim GmbH (Germany).
After 3 weeks of treatment mice were sacrificed, whole liver were collected and washed with cold saline. Individual whole liver (parietal side and visceral side) was taken photos. Liver weight were measured and liver-to-body weight ratio were calculated. The left lateral lobes of livers will be separated and dissected as described in FIG. 6, and stored as described below: • a: Liver specimens were stored at −80° C. embedded in Optimal Cutting Temperature (O.C.T., Sakura Finetek Japan, Japan) compound. • b: Liver specimens were fixed in Bouin's solution (Sigma-Aldrich, Japan) for 24 hours. After fixation, these specimens were proceeded to paraffin embedding for Sirius red-staining. • c: Liver specimens were snap frozen in liquid nitrogen and stored at −80° C.
Sections were cut from paraffin blocks of liver tissue using the rotary microtome (Leica Microsystems). […]

Another data set concerns MGAT5 activity. Briefly: L-PHA lectin staining of kidney sections as glycans marker of MGAT5 activity in SNx rats. Format: in vivo, Sprague-Dawley rats. Particulars: treated SNx rats, 20 mg/kg daily oral, 4 weeks. From the text:
Male Sprague-Dawley rats underwent ⅚ subtotal nephrectomy (SNx) and were used as the kidney fibrosis model, since SNx rats developed tubulointerstitial fibrosis. During this surgery, the right kidney is removed and 2 of the 3 branches of the left renal artery are ligated in order to necrose ⅔ of the kidney. The control kidney is right kidney before nephrectomy. Tubulointerstitial renal fibrosis inevitably leads to renal function deterioration and failure, independently of the primary renal disease. It is worth noting that in SNx rats, plasmatic creatinine concentration increases from 25.7±1.3 μM to 120.0±33.0 μM. Sirius red staining highlights fibrosis by staining collagens in paraffin-embedded kidney tissue sections. Five micrometer-thick sections were cut and mounted on glass slides. […] For each sample, quantification was performed with Image J software on pictures taken from 10 fields of kidney sections at 200-fold magnification. The staining area was measured on kidney section fields. […] Quantification was carried out as for histological staining.
Compound 3.1 was orally administered to control rats and SNx rats (as above described) at 20 mg/kg daily per 28 days. […] Histological and immunohistochemical methods were monitored as described in example 1.
Glycosylation resulting from MGAT5 activity will be specifically measured by L-PHA lectin staining. […]

In data set [2] the test system is SNx rats (renal fibrosis). Briefly: Kidney fibrosis model: 5/6 subtotal nephrectomy (SNx) rats, histological and immunohistochemical staining of kidney sections. Format: in vivo, Sprague-Dawley rats. An excerpt:
Male Sprague-Dawley rats underwent ⅚ subtotal nephrectomy (SNx) and were used as the kidney fibrosis model, since SNx rats developed tubulointerstitial fibrosis. During this surgery, the right kidney is removed and 2 of the 3 branches of the left renal artery are ligated in order to necrose ⅔ of the kidney. The control kidney is right kidney before nephrectomy. Tubulointerstitial renal fibrosis inevitably leads to renal function deterioration and failure, independently of the primary renal disease. It is worth noting that in SNx rats, plasmatic creatinine concentration increases from 25.7±1.3 μM to 120.0±33.0 μM. Sirius red staining highlights fibrosis by staining collagens in paraffin-embedded kidney tissue sections. Five micrometer-thick sections were cut and mounted on glass slides. Slides were deparaffinized and stained with Sirius red for evaluation of collagen localization. […] The sections were mounted in Entelan mounting medium and examined under microscope. For each sample, quantification was performed with Image J software on pictures taken from 10 fields of kidney sections at 200-fold magnification. The staining area was measured on kidney section fields. Immunohistochemical analyses of kidney sections were also performed using paraffin sections. The primary antibody, anti-Mgat5 was incubated overnight at 4° C. Revelation was performed with Universal vectastain ABC kit and ImmPACT AE following the instructions of suppliers, Vector Laboratories. Then, the sections were mounted in an aqueous mounting medium, VectaMount™ AQ and examined under microscope (Nikon Eclipse TE300). Quantification was carried out as for histological staining.
Compound 3.1 was orally administered to control rats and SNx rats (as above described) at 20 mg/kg daily per 28 days. A control was carried out with a vehicle (without compound 3.1) administered in the same manner as compound 3.1. Sprague Dawley rats will be used. The rats will be fed ad libitum and will be placed in a 12 hour light, 12 hour dark cycle. They will be divided 3 per cage. Some rats undergo ⅚ subtotal nephrectomy (SNx) to develop chronic kidney failure which will lead to the development of renal fibrosis. The 3.1a treatment was administered to the rats on the day of nephrectomy and continued for the entire protocol. It is delivered as a nanosuspension diluted in drinking water. Control rats receive the solvent alone (placebo). Histological and immunohistochemical methods were monitored as described in example 1.

Setting [3] is: 15 mg/kg PO BID, 3 weeks of treatment.

SMILES strings stand for the structures.

On to `CC(=O)N[C@@H]1[C@@H](OCc2ccccc2)[C@H](OCc2ccccc2)[C@@H](COCc2ccccc2)O[P@@]1(=O)c1ccccc1` [Compound 2.2, N-((2S,3S,4S,5S,6R)-4,5-bis(benzyloxy)-6-((benzyloxy)methyl)-2-oxido-2-phenyl-1,2-oxaphosphinan-3-yl)acetamide], for which the “% inhibition of wound healing” value in the data set on NIH3T3 fibroblasts turned out to be 28.7%.

Turning to `O=[P@@]1(c2ccc(Oc3ccccc3)cc2)O[C@H](COCc2ccccc2)[C@@H](OCc2ccccc2)[C@H](OCc2ccccc2)[C@H]1O` [Compound 3.0, (2S,3S,4S,5S,6R)-4,5-bis(benzyloxy)-6-((benzyloxy)methyl)-3-hydroxy-2-(4-phenoxyphenyl)-1,2-oxaphosphinane 2-oxide], the “% inhibition of wound healing” value with NIH3T3 fibroblasts was 23.0%.

Turning to `O=[P@@]1(c2ccccc2)O[C@H](COCc2ccccc2)[C@@H](OCc2ccccc2)[C@H](OCc2ccccc2)C1O` (stereo partly shown) [Compound 3.1, 3-Hydroxy-4,5-bis-benzyloxy-6-benzyloxymethyl-2-phenyl-2-oxo-2λ5-[1,2]oxaphosphinane], in data set [1] (setting [3]), the body weight loss entry is given as “no body weight loss”, the clinical signs result was “no clinical signs” and the death result is listed as “no death”. Besides, in data set [1], the “Sirius red positive area (fibrosis area) of liver sections” value is listed as 0.47±0.12%. For the same molecule, the “PHA-L staining of kidney sections” value in the data set with MGAT5 activity turned out to be 5.1±0.5%. Further, in the data set with NIH3T3 fibroblasts, the “% inhibition of wound healing” value worked out at 42.0%. The “fibrosis, Sirius red staining area of kidney sections” value in data set [2] (SNx rats treated, 20 mg/kg daily oral, 4 weeks) came out at 5.8±1.2%. Moreover, the plasma/serum creatinine concentration result in data set [2] (SNx treated rats vs SNx rats on placebo, 20 mg/kg daily oral, at 4 weeks) is given as “lower serum creatinine”. Moreover, the “treatment effect on collagen III in controls” value in data set [2] (control (non-nephrectomized) rats, 20 mg/kg daily oral, 4 weeks) is listed as “no treatment effect”. Also, the “effect of treatment on fibrosis (Sirius red)” value in data set [2] (healthy animals or SNx, 4 weeks) was “no significant effect”. Besides, the “collagen I expression, kidney immunostaining” value in data set [2] (treated SNx rats, 20 mg/kg daily oral, 4 weeks, p=0.014 vs untreated SNx) is 1.3±0.3%. In addition, the “collagen IV expression, kidney immunostaining” value in data set [2] (treated SNx rats, 20 mg/kg daily oral, 4 weeks, p=0.015 vs untreated SNx) is listed as 6.4±0.3%. In addition, the “collagen III level, kidney immunostaining” value in data set [2] (treated SNx rats, 20 mg/kg daily oral, 4 weeks, p=0.27 vs untreated SNx) is 4.0±0.3%.

As to `CC1(C)OC[C@H](C2O[P@@](=O)(c3ccccc3)[C@H](NCc3ccccc3)[C@H]3OC(C)(C)O[C@@H]23)O1` (stereo partly drawn) [Compound 3.3, (3aR,6S,7S,7aS)-7-(benzylamino)-4-((R)-2,2-dimethyl-1,3-dioxolan-4-yl)-2,2-dimethyl-6-phenyltetrahydro-[1,3]dioxolo[4,5-d][1,2]oxaphosphinine 6-oxide], the “% inhibition of wound healing” value in the data set with NIH3T3 fibroblasts is recorded as 29.8%.

For `CC1(C)OC[C@H](C2O[P@](=O)(c3ccccc3)[C@@H](OC(=O)c3ccccc3)[C@H]3OC(C)(C)O[C@@H]23)O1` (stereo partly drawn) [Compound 4.2, (3aR,6R,7R, 7aS)-4-((R)-2,2-dimethyl-1,3-dioxolan-4-yl)-2,2-dimethyl-6-oxido-6-phenyltetrahydro-[1,3]dioxolo[4,5-d][1,2]oxaphosphinin-7-yl benzoate], the “% inhibition of wound healing” value in the data set on NIH3T3 fibroblasts stood at 17.2%.

In the case of `c1ccc(CN[C@@H]2[C@@H](OCc3ccccc3)[C@H](OCc3ccccc3)[C@@H](COCc3ccccc3)O[P@@]2c2ccccc2)cc1` [Compound 4.6, (2S,3S,4S,5S,6R)-3-(benzylamino)-4,5-bis(benzyloxy)-6-((benzyloxy)methyl)-2-phenyl-1,2-oxaphosphinane], in the data set with NIH3T3 fibroblasts, the “% inhibition of wound healing” value came to 29.3%.

`CCCc1nc2c(C)cc(-c3nc4ccccc4n3C)cc2n1Cc1ccc(-c2ccccc2C(=O)O)cc1` [Telmisartan, reference compound]: the “Sirius red positive area (fibrosis area) of liver sections” value in data set [1] is 0.50±0.24%.
